Measurements: patent publication US7138241B2, “Hybridoma, an antibody resistant to an interfering substance, and a kit for immunological analysis” (Japan Envirochemicals, Ltd., priority 2001, dated 2006)

Tested on: EE2-227 antibody
Test: Cross-reactivity test with the EE2-ELISA kit
Assay type: binding, mouse
Conditions: from IC50 (50% degree of inhibition) of each estrogen's standard curve relative to EE2
Method: 100 μL/well of a quantification sample or the “EE2 standard solution” (both are 10% methanol solutions) and 100 μL/well of the “antigen-enzyme conjugate solution” were mixed on a “mixing microplate”.
The “mixed solution” prepared in (3) was pipetted into the “anti-EE2 monoclonal antibody-immobilized plate” in a volume of 100 μl/well and reacted at room temperature for 60 minutes.
The “coloration reagent” prepared in (7) was added in the volume of 100 μL/well, the mixture was reacted at room temperature for 30 minutes, and the “coloration-stop solution” was added in a volume of 100 μL/well to stop the reaction.
The absorbance was measured at a wavelength of 450 nm with a plate reader, and the concentration of EE2 in the sample was determined from a standard curve.
The EE2 concentration was plotted on the ordinate [sic], and the ratio of the absorbance at each EE2 concentration to the absorbance at the concentration of 0 μg/L EE2 (degree of inhibition, B/BO %) was plotted on the abscissa [sic].
For the estrogens shown in [Table 2], the respective standard curves were prepared in the same manner as in Example 4, and the EE2 concentration (IC50) at which the degree of inhibition was 50% was determined and the cross-reactivity was determined from the following equation, and the results are shown in [Table 2]. Cross-reactivity (%)=[…]

C[C@]12CC[C@@H]3c4ccc(OS(=O)(=O)O)cc4CC[C@H]3[C@@H]1CC[C@@H]2O[C@@H]1O[C@H](C(=O)O)[C@@H](O)[C@H](O)[C@H]1O [E2-3-sulfate-17-glucuronide]
Cross-reactivity (%) of EE2-227 antibody: <0.2%

C[C@]12CC[C@@H]3c4ccc(O)cc4CC[C@H]3[C@@H]1CC[C@@H]2O [17β-Estradiol (E2), 17β-Estradiol]
Cross-reactivity (%) of EE2-227 antibody: <0.2%

C#C[C@]1(O)CC[C@H]2[C@@H]3CCc4cc(O)ccc4[C@H]3CC[C@@]21C [Ethynylestradiol (EE2), Ethynylestradiol]
Cross-reactivity (%) of EE2-227 antibody: 100.0%

C[C@]12CC[C@@H]3c4ccc(O)cc4CC[C@H]3[C@@H]1CC[C@@H]2O[C@@H]1O[C@H](C(=O)O)[C@@H](O)[C@H](O)[C@H]1O [E2-17-glucuronide]
Cross-reactivity (%) of EE2-227 antibody: <0.2%

C[C@]12CC[C@@H]3c4ccc(O)cc4CC[C@H]3[C@@H]1C[C@@H](O[C@@H]1O[C@H](C(=O)O)[C@@H](O)[C@H](O)[C@H]1O)[C@@H]2O [E3-16-glucuronide]
Cross-reactivity (%) of EE2-227 antibody: <0.2%

C[C@]12CC[C@@H]3c4ccc(O[C@@H]5O[C@H](C(=O)O)[C@@H](O)[C@H](O)[C@H]5O)cc4CC[C@H]3[C@@H]1CC[C@@H]2O [E2-3-glucuronide]
Cross-reactivity (%) of EE2-227 antibody: <0.2%

COc1cc2c(cc1O)CC[C@@H]1[C@@H]2CC[C@]2(C)C(=O)CC[C@@H]12 [2-Methoxy E1]
Cross-reactivity (%) of EE2-227 antibody: <0.2%

C[C@]12CC[C@@H]3c4ccc(O)cc4CC[C@H]3[C@@H]1C[C@H](O)[C@@H]2O [16-Epi-E3]
Cross-reactivity (%) of EE2-227 antibody: <0.2%

C[C@]12CC[C@@H]3c4ccc(O)cc4CC[C@H]3[C@@H]1C[C@@H](O)[C@@H]2O [Estriol (E3), Estriol]
Cross-reactivity (%) of EE2-227 antibody: <0.2%
